The conditions of data set [1]: 300 K, cited from earlier work.
A short description of data set [2]: GA Solubility Test (TGA mass balance of saturated solution). The class given is physicochemical. To be noted: 4° C.
Procedure: GA Solubility Test: Due to the lactonization potential of glucaric acid, the solubility was estimated using thermogravimetric analysis (TGA) based on the mass balance of the saturated solution. A sample of acetone-washed GA was dissolved in 3 mL of the IPA/water mixture (7:1 by mass) to excess, sonicated, and allowed to settle overnight at each of three temperatures: −20° C., 4° C. and 22° C. Next, the solutions were filtered at a pore size of 0.45 μm. These saturated solutions were dropped into an aluminum Differential Scanning calorimetry (DSC) pan and placed on dry ice to partially freeze them and slow the evaporation rate so that the mass of the total solution could be measured by TGA. The partially frozen solution was heated from room temperature at 5° C. per minute to 110° C. and held isothermally for 15 minutes to allow the solvent to evaporate. In this way, the mass of the remaining species in the pan was determined to μg precision. This was taken to be the total mass of GA that had dissolved in the solvent, including possible lactone products, in a catch-all method.
The nature of data set [3]: physchem. Particulars: pH 1.5, aqueous buffer, thermodynamic from solid.
Procedure: (§1) KGA Solubility Test: KGA solubility was quantified by adding excess KGA to UHP water and adjusting pH between 1-6 by addition of 2 M HCl or 2 M KOH with stirring. The samples were mixed, allowed to sit overnight, and then the pH was measured again. The samples were filtered, diluted with a pH 7 phosphate buffer to reduce lactonization and the KGA concentration was quantified by LC. Similarly, KGA solubility in a 25.2 wt. % acetone solution was measured by preparing KGA-saturated solution samples at −20° C., 22° C. and 40° C. and quantified by using the liquid chromatography (LC) method.
(§2) 15 μl samples were injected into a Phenomenex Luna C18(2) 5 μm, 150 mm×4.6 mm column at a temperature of 35° C. An isocratic mobile phase of 20 mM potassium phosphate at pH 7 was pumped at a flow rate of 0.65 mL/min for 7 min.
Data set [4] can be described thus: Enthalpy and entropy of dissolution from Van't Hoff plot of solubility versus temperature. The class given is physicochemical. The procedure: The enthalpy and entropy of dissolution of KGA and GA. The enthalpy and entropy of dissolution are calculated here using the solubility of KGA and GA in solutions of identical solvent composition as a function of temperature. The solubility of KGA and GA and related thermodynamic properties (enthalpy and entropy of dissolution) are important because they can be used for building a crystallization model and optimizing crystallization conditions in a large scale process. Accordingly, using the solubility data obtained for each compound (FIG. 2B), the enthalpy and entropy of dissolution of both KGA and GA were calculated using the Van't Hoff equation.
In Equation 1, x is the mole fraction of a compound in the solvent, Δ_dis H and Δ_dis S are the enthalpy and the entropy of dissolution, T is the absolute temperature, and R represents the ideal gas constant. The solubility of KGA or GA was measured by varying temperature to plot ln x versus 1/T, and the resulting values of enthalpy and entropy of dissolution was determined from the slope and the intercept, respectively.
The antisolvent loading in each mixture is the same as used in each purification process. Table 4 provides the dissolution enthalpy and entropy of both KGA and GA calculated from Eq. (1) using the linear fits in FIG. 5. […] The […] of GA solubility data yields a negative entropy of dissolution for GA. This could be because dissolved GA is in equilibrium with lactones, and they form dimers or organized structures that are represented by this value.

The conditions of data set [5]: reported pKa value of glucaric acid; cited from earlier work.
Data set [6] in a line: KGA Solubility Test (glucarate solubility at various pH in water and acetone/water, quantified by LC). To be noted: for solubility: 22 °C, thermodynamic from solid.
Procedure: as §1, §2
Data set [7] can be described thus: Reported pKa values of glucaric acid and molar speciation calculated from them. Particulars: at pH 3.6, calculated from reported pKa values. It counts as physicochemical. From the text:
The inset photo is the KGA precipitate from broth pH adjusted to 3.5 (left) and broth pH adjusted to 3.5 with acetone 25 wt. % acetone addition (right).

Converted amounts (≈) assume the structure as drawn.

As for `O=C(O)[C@@H](O)[C@H]1OC(=O)[C@H](O)[C@H]1O` [1,4-lactone, D-glucaro-1,4-lactone], in data set [1] (1,4-lactone → GA), the “Rate constant k1” value is 7.04e-05 s⁻¹.
As for `O=C1O[C@H]2[C@H](OC(=O)[C@@H]2O)[C@@H]1O` [1,4:6,3-dilactone, D-glucaro-1,4:6,3-dilactone], the “Rate constant k8” value in data set [1] (1,4:6,3-dilactone → 6,3-lactone (so in the source)) is 5.01e-05 s⁻¹. Also, the “Rate constant k6” value in data set [1] (1,4:6,3-dilactone → 6,3-lactone) is 0.00197 s⁻¹.
For `O=C1O[C@H]([C@@H](O)C(=O)O)[C@H](O)[C@@H]1O` [6,3-lactone, D-glucaro-6,3-lactone], in data set [1] (6,3-lactone → 1,4:6,3-dilactone (so in the source)), the “Rate constant k7” value is 0.000664 s⁻¹. Also, the “Rate constant k5” value in data set [1] (6,3-lactone → 1,4:6,3-dilactone) was 0.000174 s⁻¹. The “Rate constant k4” value in data set [1] (6,3-lactone → GA) is 8.7e-05 s⁻¹.
Consider `O=C(O)[C@@H](O)[C@@H](O)[C@H](O)[C@@H](O)C(=O)O` [GA, glucaric acid], for which, in data set [1] (GA → 1,4-lactone), the “Rate constant k2” value is 4.84e-05 s⁻¹. Also, the “Rate constant k3” value in data set [1] (GA → 6,3-lactone) was 5.52e-05 s⁻¹. The “higher solubility than KGA” value (pH 1.5) was 56%. For the same molecule, the “solubility increase as pH is decreased” value (pH 3.1) was “about 55%”. For the same molecule, in data set [2], the “solubility in IPA-water lower than that in ACN-water” value came out at 53% and the “solubility in IPA-water lower than that in water” value came out at 77%. The solubility (as a rule, how much of the substance goes into solution per volume) in data set [3] worked out at 26 mg/mL (≈ 124 mM). Moreover, in data set [4] (solvent Isopropanol 87.5 wt. %), the AdisH turned out to be 0.88 kcal/mol and the AdisS was −40.78 J/mol/K. In addition, in data set [5], the pKa1 is on record as 3.17 and the pKa2 is reported as 3.96.
In data set [6] (aqueous buffer), `O=C([O-])[C@@H](O)[C@@H](O)[C@H](O)[C@@H](O)C(=O)[O-].[K+].[K+]` [K2GA, dipotassium glucarate] had a solubility of more than 120 mg/mL.
On to `O=C(O)[C@@H](O)[C@@H](O)[C@H](O)[C@@H](O)C(=O)[O-].[K+]` [KGA, monopotassium glucarate], for which, in data set [7], the “maximum concentration (molar fraction) of KGA form” value is reported as 55 mol %. The solubility is approximately 16 mg/mL in data set [6] (pH 3.5, aqueous buffer) and approximately 8.1 mg/mL in data set [6] (pH 3.5, aqueous with cosolvent or surfactant or cyclodextrin). The “additional reduction of solubility by adding acetone” value in data set [6] (acetone 25 wt. %, pH 3.5) came out at 50%. The solubility in broth result in data set [6] (fermentation broth, pH 3.5, acetone (30 vol %)) was “almost zero”. In addition, the “saturation limit in high purity water” value in data set [6] (high purity water, no pH adjustment) was 0.06 M. Also, in data set [6] (pH 3.5), the “solubility relative to the solubility of K2GA at pH 5.8” value is 13.5 mol %. In addition, the AdisH in data set [4] (solvent Acetone 24.7 wt. %) was 7.639 kcal/mol. In data set [4] (solvent Acetone 24.7 wt. %), the AdisS turned out to be 35.70 J/mol/K.

These data come from patent publication US20240391861A1, “PROCESS FOR THE RECOVERY OF MONOPOTASSIUM GLUCARATE AND GLUCARIC ACID” (Alliance for Sustainable Energy, LLC, priority 2021, published 2024).
